Results on two compounds are retold here after patent US20070213400A1, “ALCOHOL-METABOLISM ENHANCING COMPOSITION AND INGESTA CONTAINING THE SAME” (Taiyokagaku Co., Ltd., priority 2004, published 2007).

Each structure is given as a SMILES string.

One series deals with alcohol dehydrogenase. The series is described as follows: Liver alcohol dehydrogenase (ADH) activity after ingestion of ethanol. The format is in vivo, CDF1 male mice. The conditions noted are these: mouse liver, 3 hours after ingestion of ethanol. The protocol: (§1) Ethanol was ingested to CDF1 male mice 3.0 g/weight by kg by oral administration. Theanine was ingested to the abdominal cavity of each mouse once before ingestion of ethanol. Concentration of ethanol in the blood and concentration of lipid peroxide in the liver were measured. GSH concentration was also measured. Furthermore, alcohol dehydrogenase, aldehyde dehydrogenase and enzyme activity of […] were also measured.

A further series relates to GSH in the liver. The series is described as follows: Chronic administration, alcoholic liver injury: GSH in the liver. It is filed as in vivo, CDF1 male mice. The conditions noted are these: mice, ethanol 1.0 or 2.0 g/kg oral twice a day, theanine 100 mg/kg abdominal cavity, ten days (FIG. 7). The protocol: (§2) The GSH concentration in the liver was measured by the following method (HiSSIN-Hilf). 5% homogenate of the liver or heart was prepared in a 0.1 M sodium phosphate-0.005 M EDTA buffer liquid (pH 8.0) using a potter type Teflon homogenizer while being iced. 0.25 mL of 25% metaphosphoric acid was added to 0.75 mL of homogenate liquid and mixed well. 10000 g of substance was centrifugally processed for 30 minutes. Thereafter, supernatant was sampled and diluted by 50 times with 0.1 M sodium phosphate-0.005 M EDTA buffer liquid (pH 8.0). To 0.20 mL of the diluted liquid was added 3.6 mL of 0.1 M sodium phosphate-0.005 M EDTA buffer liquid (pH 8.0) and 0.20 mL of 0.1% o-phthalaldehyde (OPT) -methanol liquid. The mixture was left at a room temperature for 5 minutes and thereafter, the fluorometry (excitation wavelength: 350 nm; and fluorescent wavelength: 420 nm) was carried out. The unknown sample was calculated using calibration curve.

The subject of the next series is cytochrome P2E1 (CYP2E1). The series is described as follows: Liver CYP2E1 enzyme activity after ingestion of ethanol (HPLC, para-nitrophenol). The conditions noted are these: mouse liver, 3 hours after ingestion of ethanol. The format is in vivo, CDF1 male mice. The protocol:
as §1

A short description of series [1]: Ethanol concentration in the blood after ingestion of ethanol (ADH method). The format is in vivo, CDF1 male mice. To be noted: mice; for Ethanol concentration in the blood, Mean: ethanol 3.0 g/kg oral, theanine 100 mg/kg. The protocol: as §1
The concentration of ethanol in the blood was measured by the following ADH method. 0.1 mL of blood was added to 0.8 mL of 0.33 N perchloric acid. After execution of a vortex process, a centrifugal process was carried out under the condition of 1200 g for 5 minutes. 0.1 mL of supernatant was mixed with 0.1 mL of buffer liquid containing […] of sodium phosphate/semicarbazide buffer liquid (pH8.7) and 0.48 mM of NAD. 0.02 mL of ADH (≧32 IU/mL) was further added to the mixture and incubated at 37° C. for 25 minutes. Thereafter, absorbance was measured at 340 nm. An unknown sample concentration was calculated by the comparison of ethanol concentration with known standard sample data.

The subject of series [2] is GSH concentration in the liver. The series is described as follows: GSH concentration in the liver after ingestion of ethanol. The conditions noted are these: mouse liver, % of normal state. It is filed as in vivo, CDF1 male mice. As to the method: as §1, §2
The next series has as its system GPT. The series is described as follows: Chronic administration, alcoholic liver injury: GPT in the blood. It is filed as in vivo, CDF1 male mice. The conditions noted are these: mice, ethanol 1.0 or 2.0 g/kg oral twice a day, theanine 100 mg/kg abdominal cavity, ten days (FIG. 6). As to the method: Ethanol was ingested to CDF1 male mice (5 weeks old) 1.0 g/kg-weight or 2.0 g/kg-weight by oral administration twice in a day. Theanine was ingested to the abdominal cavity of each mouse 100 mg/kg-weight. After ingestion of ethanol and theanine for ten days, concentrations of GOT, GPT, and γ-GTP in the blood were measured. Concentrations of lipid peroxide and GSH in the liver were measured.
(§3) The concentrations of GOT and […] in the blood were measured by using the […] C-test WAKO (WAKO Pure Chemical Industries, Ltd). The concentration of γ-GTP was measured by using the γ-GTP C-test WAKO (WAKO Pure Chemical Industries, Ltd) Concentrations of lipid peroxide and GSH in the liver were measured by the method written in Embodiment 1.
The concentration of GPT was measured by the following method. 0.02 mL of serum was added to 0.5 mL of GPT-measuring-substrate-buffer and incubated at 37° C. for 5 minutes. Thereafter, 0.5 mL of coloring reagent was added, incubated at 37° C. for 20 minutes. 2.0 mL of stop solution was added to the mixture. Thereafter absorbance was measured at 555 nm. GPT activity (Karmen unit) in the blood was calculated by the comparison of GPT activity with known standard sample data plot.

Series [3] has as its system lipid peroxide in the liver. The series is described as follows: Lipid peroxide concentration in the liver after ingestion of ethanol (TBA fluorometry). The format is in vivo, CDF1 male mice. The conditions noted are these: mouse liver; for Lipid peroxide concentration, Mean: ethanol 3.0 g/kg oral, theanine. The protocol: as §1
(§4) The lipid peroxide concentration in the liver was measured in the following method (TBA fluorometry). 0.1 mL of liver sample (2% homogenate in physiological salt solution) was added with 0.5 mL of 3% SDS, 1.5 mL of 2.0 M acetic acid buffer liquid (pH3.6), 1.5 mL of 0.8% thiobarbituric acid and 0.4 mL of purified water so that a total amount was 4.0 mL. In a standard sample, 20 μL of 50 μmol/L malondialdehyde (MDA) was added instead of the above liver sample and 0.48 purified water was added. The solution was heat-treated in boiling water for 75 minutes and thereafter, cooled for 5 minutes. 1.0 mL of 0.2 N chloride and 5.0 mL of n-butanol were mixed to the cooled substance and thereafter, shaken for 30 seconds. 1200 g of substance was centrifugally processed for 15 minutes. Supernatant was sampled and fluorometry (excitation wavelength: 515 nm; and fluorescent wavelength: 553 nm) was carried out. The unknown sample was calculated using calibration curve.

For another series, the system named is aldehyde dehydrogenase. The series is described as follows: Liver aldehyde dehydrogenase (ALDH) activity after ingestion of ethanol. It is filed as in vivo, CDF1 male mice. To be noted: mouse liver, 3 hours after ingestion of ethanol. As to the method:
as §1

Series [4] deals with lipid peroxide in the liver. The series is described as follows: Chronic administration, alcoholic liver injury: lipid peroxide in the liver. It is filed as in vivo, CDF1 male mice. To be noted: mice, ethanol 1.0 or 2.0 g/kg oral twice a day, theanine 100 mg/kg abdominal cavity, ten days. As to the method:
as §4, with “1.0 mL of 0.2 N chloride and 5.0 mL of n-butanol were mixed to the cooled substance and thereafter, shaken for 30 seconds. 1200 g of substance was centrifugally processed for 15 minutes. Supernatant was sampled and fluorometry (excitation wavelength: 515 nm; and fluorescent wavelength: 553 nm) was carried out.” left out
Ethanol was ingested to CDF1 male mice (5 weeks old) 1.0 g/kg-weight or 2.0 g/kg-weight by oral administration twice in a day. […] After ingestion of ethanol and theanine for ten days, concentrations of GOT, GPT, and γ-GTP in the blood were measured. Concentrations of lipid peroxide and GSH in the liver were measured.
as §3

Another series relates to mice. The format is in vivo. To be noted: oral administration of theanine by 5 g/kg. An excerpt:
Theanine used in the invention has a high security. […] Furthermore, theanine is known as a principal component of deliciousness of tea and used as a food additive for use as gustatory. An amount of theanine to be added is not limited under the Food Sanitation Law. Moreover, differing from conventional medical substances, theanine has no adverse side effect. Consequently, the composition of the invention can be used as a safe and effective alcohol-metabolism enhancing composition.

As to `CCO` [Ethanol], in the series on alcohol dehydrogenase, the “ADH activity as compared with control (normal state)” value is given as “about 123%”. Besides, the “ADH activity, Mean” value in the series on alcohol dehydrogenase was found to be 9.13 μmol/min · mg protein. Further, the “GSH concentrations in the liver” value in the series with GSH in the liver is on record as “decreased”. In the series with cytochrome P2E1 (CYP2E1), the “CYP2E1 activity, Mean” value is listed as 20.4 nmol/mg protein/min. Besides, the “Ethanol concentration in the blood, Mean” value came out at 0 mg/mL in series [1] (time 0 h), 0.498 mg/mL in series [1] (time 0.5 h), 0.108 mg/mL in series [1] (time 1 h) and 0.022 mg/mL in [1] (time 3 h). Moreover, the “GSH concentration (%), Mean” value in series [2] (time 0 h) came out at 100.00%; in series [2] (time 0.5 h), 79.84%; in [2] (time 1 h) it was 78.83%; in [2] (time 2 h), 81.57%; in [2] (time 3 h), 75.96%; in [2] (time 5 h), 65.50%. Further, the “GSH concentration (%), Mean” value in series [2] (time 5 h, listed as ethanol) came out at 65.5%. In addition, the “GPT concentrations in the blood” value in the series on GPT is “increased”. For the same compound, the “Lipid peroxide concentration, Mean” value in series [3] (time 0 h) was found to be 0.617 mg/mL; in series [3] (time 0.5 h), 0.573 mg/mL; in [3] (time 1 h), 0.565 mg/mL; in series [3] (time 2 h), 0.580 mg/mL; in [3] (time 3 h) it was 1.036 mg/mL; in series [3] (time 5 h), 0.568 mg/mL. In addition, the “lipid peroxide” value in [3] (only ethanol ingested, peak value (3 h in Table 2)) came to 1.036 u mol/g protein. Moreover, the “Lipid peroxide concentration (%) of the value in the normal state” value in series [3] (time 0 h) was determined as 100%; in series [3] (time 0.5 h), 93%; in series [3] (time 1 h), 92%; in series [3] (time 2 h) it was 94%; in series [3] (time 3 h), 168%; in series [3] (time 5 h), 92%. Besides, the “ALDH activity as compared with control” value in the series on aldehyde dehydrogenase is given as “about 63.5%”. Besides, the “ALDH activity, Mean” value with aldehyde dehydrogenase was 5.80 μmol/min · mg protein.
In the case of `CCNC(=O)CC[C@H](N)C(=O)O` [Theanine, theanine], the “GSH concentrations in the liver” value in the series on GSH in the liver is “decrease of the GSH could be reduced”. In series [1] (ethanol 3.0 g/kg, theanine 100 mg/kg 30 minutes after ethanol), the “AUC0-3 hr of blood ethanol reduced by joint use of theanine as compared with only ethanol” value is reported as 76%. The “GPT concentrations in the blood” value with GPT is recorded as “increase of the GPT concentrations could be reduced”. In addition, the “lipid peroxide in the liver” value in [4] is “increase of lipid peroxide in the liver would be reduced”. In addition, the “Mortality in acute toxicity test” value in the series on mice is recorded as “no mice died”.
